Data taken from PubChem BioAssay (NCI).
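Tested at 5 concentrations; 48 h exposure; 96-well plates; endpoints linearly interpolated, else capped at highest concentration. GI50 = concentration required for 50% inhibition of growth. The concentration for full growth arrest is given as TGI.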

Columns and labels:
Assay in all cases: inhibition of tumour cell growth, NCI panel, 48 h
786-0 renal = system: 786-0 renal
A498 renal = system: A498 renal
A549 NSCLC = system: A549 NSCLC
ACHN renal = system: ACHN renal
CAKI-1 renal = system: CAKI-1 renal
CCRF-CEM leukemia = system: CCRF-CEM leukemia
COLO 205 colon = system: COLO 205 colon
DU-145 prostate = system: DU-145 prostate
EKVX NSCLC = system: EKVX NSCLC
HCC-2998 colon = system: HCC-2998 colon
HCT-116 colon = system: HCT-116 colon
HCT-15 colon = system: HCT-15 colon
HL-60(TB) leukemia = system: HL-60(TB) leukemia
HOP-62 NSCLC = system: HOP-62 NSCLC
HS 578T breast = system: HS 578T breast
HT29 colon = system: HT29 colon
IGROV1 ovarian = system: IGROV1 ovarian
K-562 leukemia = system: K-562 leukemia
KM12 colon = system: KM12 colon
LOX IMVI melanoma = system: LOX IMVI melanoma
M14 melanoma = system: M14 melanoma
MALME-3M melanoma = system: MALME-3M melanoma
MCF7 breast = system: MCF7 breast
MDA-MB-231 breast = system: MDA-MB-231 breast
MDA-MB-435 = system: MDA-MB-435
MDA-N = system: MDA-N
MOLT-4 leukemia = system: MOLT-4 leukemia
NCI-H226 lung = system: NCI-H226 lung
NCI-H23 lung = system: NCI-H23 lung
NCI-H460 lung = system: NCI-H460 lung
NCI-H522 lung = system: NCI-H522 lung
NCI/ADR-RES ovarian = system: NCI/ADR-RES ovarian
OVCAR-3 ovarian = system: OVCAR-3 ovarian
OVCAR-4 ovarian = system: OVCAR-4 ovarian
OVCAR-5 ovarian = system: OVCAR-5 ovarian
OVCAR-8 ovarian = system: OVCAR-8 ovarian
PC-3 prostate = system: PC-3 prostate
RPMI-8226 leukemia = system: RPMI-8226 leukemia
RXF 393 renal = system: RXF 393 renal
SF-268 CNS = system: SF-268 CNS
SF-295 CNS = system: SF-295 CNS
SF-539 CNS = system: SF-539 CNS
SK-MEL-2 melanoma = system: SK-MEL-2 melanoma
SK-MEL-28 melanoma = system: SK-MEL-28 melanoma
SK-MEL-5 melanoma = system: SK-MEL-5 melanoma
SK-OV-3 ovarian = system: SK-OV-3 ovarian
SN12C renal = system: SN12C renal
SNB-19 CNS = system: SNB-19 CNS
SNB-75 CNS = system: SNB-75 CNS
SR leukemia = system: SR leukemia
SW-620 colon = system: SW-620 colon
T-47D breast = system: T-47D breast
TK-10 renal = system: TK-10 renal
U251 CNS = system: U251 CNS
UACC-257 melanoma = system: UACC-257 melanoma
UACC-62 melanoma = system: UACC-62 melanoma
UO-31 renal = system: UO-31 renal
BT-549 breast = system: BT-549 breast
HOP-92 NSCLC = system: HOP-92 NSCLC

`CC1C2Cc3ccc(O)cc3C1(C)CCN2C` (stereo unspecified) showed a TGI (786-0 renal) of over 100 µM, a TGI (A498 renal) of over 100 µM and a TGI (A549 NSCLC) of over 100 µM. For the same compound, the TGI (ACHN renal) was over 100 µM, the TGI (CAKI-1 renal) was over 100 µM and the TGI (CCRF-CEM leukemia) was over 100 µM. It also gave a TGI (COLO 205 colon) of over 100 µM, a TGI (DU-145 prostate) of over 100 µM and a TGI (EKVX NSCLC) of over 100 µM. It also gave a TGI (HCC-2998 colon) of over 100 µM, a TGI (HCT-116 colon) of over 100 µM and a TGI (HCT-15 colon) of over 100 µM. The TGI (HL-60(TB) leukemia) was over 100 µM, the TGI (HOP-62 NSCLC) was over 100 µM and the TGI (HS 578T breast) was over 100 µM. It also gave a TGI (HT29 colon) of over 100 µM, a TGI (IGROV1 ovarian) of over 100 µM and a TGI (K-562 leukemia) of over 100 µM. For the same compound, the TGI (KM12 colon) was over 100 µM, the TGI (LOX IMVI melanoma) was over 100 µM and the TGI (M14 melanoma) was over 100 µM. The TGI (MALME-3M melanoma) was over 100 µM, the TGI (MCF7 breast) was over 100 µM and the TGI (MDA-MB-231 breast) was over 100 µM. It also gave a TGI (MDA-MB-435) of over 100 µM, a TGI (MDA-N) of over 100 µM and a TGI (MOLT-4 leukemia) of over 100 µM. For the same compound, the TGI (NCI-H226 lung) was over 100 µM, the TGI (NCI-H23 lung) was over 100 µM and the TGI (NCI-H460 lung) was over 100 µM. For the same compound, the TGI (NCI-H522 lung) was over 100 µM, the TGI (NCI/ADR-RES ovarian) was over 100 µM and the TGI (OVCAR-3 ovarian) was over 100 µM. It also gave a TGI (OVCAR-4 ovarian) of over 100 µM, a TGI (OVCAR-5 ovarian) of over 100 µM and a TGI (OVCAR-8 ovarian) of over 100 µM. The TGI (PC-3 prostate) was over 100 µM, the TGI (RPMI-8226 leukemia) was over 100 µM and the TGI (RXF 393 renal) was over 100 µM. It also gave a TGI (SF-268 CNS) of over 100 µM, a TGI (SF-295 CNS) of over 100 µM and a TGI (SF-539 CNS) of over 100 µM. It also gave a TGI (SK-MEL-2 melanoma) of over 100 µM, a TGI (SK-MEL-28 melanoma) of over 100 µM and a TGI (SK-MEL-5 melanoma) of over 100 µM. It also gave a TGI (SK-OV-3 ovarian) of over 100 µM, a TGI (SN12C renal) of over 100 µM and a TGI (SNB-19 CNS) of over 100 µM. For the same compound, the TGI (SNB-75 CNS) was over 100 µM, the TGI (SR leukemia) was over 100 µM and the TGI (SW-620 colon) was over 100 µM. It also gave a TGI (T-47D breast) of over 100 µM, a TGI (TK-10 renal) of over 100 µM and a TGI (U251 CNS) of over 100 µM. The TGI (UACC-257 melanoma) was over 100 µM, the TGI (UACC-62 melanoma) was over 100 µM and the TGI (UO-31 renal) was over 100 µM.
Compound `COc1cc2cc(c1Cl)N(C)C(=O)CC(OC(=O)C(C)C)C1(C)OC1C(C)C1CC(O)(NC(=O)O1)C(OC)/C=C/C=C(C)C2` (stereo unspecified) has a TGI (786-0 renal) of 30.6 µM, a TGI (A498 renal) of 36.7 µM and a TGI (A549 NSCLC) of 33.1 µM. It also gave a GI50 (ACHN renal) of 0.0126 µM, a TGI (BT-549 breast) of 82.9 µM and a TGI (CAKI-1 renal) of 19.1 µM. It also gave a TGI (EKVX NSCLC) of 16.6 µM, a TGI (HCT-116 colon) of 13.8 µM and a TGI (HOP-62 NSCLC) of 62 µM. For the same compound, the TGI (MALME-3M melanoma) was 25.1 µM, the TGI (MDA-N) was 1.41 µM and the TGI (NCI-H23 lung) was 48.5 µM. It also gave a TGI (OVCAR-4 ovarian) of 40.8 µM, a TGI (OVCAR-5 ovarian) of 38.6 µM and a TGI (RPMI-8226 leukemia) of 12.9 µM. For the same compound, the TGI (SF-268 CNS) was 15.4 µM, the GI50 (SK-MEL-28 melanoma) was 17.6 µM and the TGI (SK-OV-3 ovarian) was 53.4 µM. For the same compound, the TGI (SN12C renal) was 46.7 µM, the GI50 (T-47D breast) was 29.1 µM and the TGI (TK-10 renal) was 36.4 µM. It also gave a TGI (UACC-257 melanoma) of 23.8 µM and a TGI (UO-31 renal) of 18.9 µM.
`CN(CCCNC(=O)c1cn(C)c2c1ccc1cc(Cl)ccc12)CCCNC(=O)c1cn(C)c2c1ccc1cc(Cl)ccc12` showed a TGI (A498 renal) of 43.6 µM, a TGI (ACHN renal) of 3.47 µM and a TGI (BT-549 breast) of 30.9 µM. It also gave a TGI (CAKI-1 renal) of 9.14 µM, a TGI (COLO 205 colon) of 2.85 µM and a TGI (DU-145 prostate) of 3.79 µM. It also gave a TGI (EKVX NSCLC) of over 100 µM, a TGI (HCT-15 colon) of 2.89 µM and a TGI (HOP-92 NSCLC) of 19.3 µM. For the same compound, the TGI (HT29 colon) was 3.19 µM, the TGI (K-562 leukemia) was over 100 µM and the TGI (M14 melanoma) was 3.75 µM. It also gave a TGI (MALME-3M melanoma) of 7.05 µM, a TGI (MDA-MB-435) of 3.23 µM and a TGI (MDA-N) of 5.6 µM. For the same compound, the TGI (NCI-H226 lung) was over 100 µM, the TGI (NCI-H23 lung) was over 100 µM and the TGI (NCI-H460 lung) was over 100 µM. The TGI (OVCAR-4 ovarian) was over 27.2 µM, the TGI (OVCAR-5 ovarian) was 18.3 µM and the TGI (PC-3 prostate) was 2.97 µM. The TGI (SF-268 CNS) was 3.25 µM, the TGI (SF-539 CNS) was 3.88 µM and the TGI (SK-MEL-28 melanoma) was 3.31 µM. For the same compound, the TGI (SK-MEL-5 melanoma) was 20 µM, the TGI (SN12C renal) was 3.35 µM and the TGI (SNB-19 CNS) was over 100 µM. For the same compound, the TGI (SR leukemia) was 16.3 µM, the TGI (TK-10 renal) was over 100 µM and the TGI (UACC-257 melanoma) was over 100 µM. The TGI (UACC-62 melanoma) was 3.76 µM.
